Values quoted from earlier work in patent US6642243B1, “Migraine medicine and method for treating same” (priority 1999, dated 2003).

Legend:
cerebral blood flow = details: in humans
migraine patients = details: pretreatment with 2 mg/kg; p<0.05
[1] = system: individuals who take these agents; details: treatment and prophylaxis of migraines

Cn1c(=O)c2c(ncn2C)n(C)c1=O [Caffeine, caffeine]
cerebral blood flow (cerebral blood flow): reduce cerebral blood flow

CN[C@@H](C)[C@@H](O)c1ccccc1 [Pseudoephedrine, pseudoephedrine]
effects of increased postural hypotension seen in migraine patients versus normal patients (migraine patients): abolished
effects of lower blood pressure after sustained handgrip seen in migraine patients versus normal patients (migraine patients): abolished

C[C@@H](CO)NC(=O)[C@@H]1C=C2c3cccc4[nH]cc(c34)C[C@H]2N(C)C1 [ergonovine]
significant toxicity, share of the individuals who take these agents [1]: ~40%

CC[C@@H](CO)NC(=O)[C@@H]1C=C2c3cccc4c3c(cn4C)C[C@H]2N(C)C1 [methysergide]
significant toxicity, share of the individuals who take these agents [1]: ~40%
